According to patent US20230235374A1, “High Throughput Assays for Detecting Translation Readthrough Inducers” (The Trustees of the University of Pennsylvania, priority 2021, published 2023):

How the values were obtained:
[1] = system: POST5 complex (eRF1 & 3 peptide release); assay: Fluorometer anisotropy measurement of POST5 complex Stop IRES-Lys*; assay type: biochemical; conditions: 0.1 μM POST5, eRF1 0.1 μM, eRF3 0.2 μM, GTP 2.0 mM, 25° C.
Protocol: Fluorometer measurements of POST5 complex Stop IRES-Lys* included the following treatment methods and components:
POST5 complex was treated with ternary complexes of release factor 1 and 3 and GTP. Lys was labeled with the fluorescent label Atto647. Conditions for the assay were as follows: at 25° C., Buffer condition included 0.1 μM POST 5. Release factor 1 and 3 (eRF1 & 3) POST 5 condition included 0.1 μM POST5; eRF1 at 0.1 μM; eRF3 at 0.2 μM; and GTP at 2 mM. Release factor 1 and 3 (eRF1 & 3) POST 5 and ataluren condition included 0.1 μM POST5; eRF1 at 0.1 μM; eRF3 at 0.2 μM; GTP at 2.0 mM; and Ataluren at […].

[2] = system: Cy5-hRF1.hRF3.GTP binding to Stop-POST5; assay: smFRET Cy5-hRF1.hRF3.GTP binding to Stop-POST5; parameters: species or system human; conditions: ataluren 1 mM, FIG. 15C
Excerpt: Several important results have been obtained with Cy5-heRF1 which further elucidate the mechanism of termination shown in FIGS. 14A and 14B. Cy5-heRF1 forms a catalytically active RFC with unlabeled heRF3, which, when added to the Stop-POST5 complex, generated a transient FRET signal with FKVRQ-tRNA^Gln(Cy3) bound in the P-site (FIGS. 15A and 15B).

[3] = system: premature stop codon in Stop-POST5 complex; assay: PURE-LITE readthrough assay; assay type: biochemical, shrimp (Artemia salina); conditions: FIG. 2A, read-out: apparent EC50, readthrough efficacy
Protocol: FIG. 2A, FIG. 2B, FIG. 2C, FIG. 2D, FIG. 2E, and FIG. 2F are graphs showing AzAt Photoaffinity Labeling and binding. FIG. 2A is a graph showing the readthrough efficacy of AzAt measured by PURE-Lite readthrough assay. AzAt is shown to display similar sigmoidal response as ataluren and ataluren-like compounds (Ng et al., 2018), with the apparent EC50 of 50±10 μM. FIG. 2B illustrates AzAt photoincorporation into Stop-POST5 and the RNA fraction of Stop-POST5. FIG. 2C illustrates AzAt photoincorporation into 80S-IRES and the total RNA isolated from 80S.IRES. All of the labeling stoichiometries in FIG. […] are normalized to the saturation labeling of Stop-POST5, which was equal to 1.2/Stop-POST5. FIG. 2D illustrates AzAt photoincorporation into eRF1 both alone and complexed with eRF3.GDPNP. The values are normalized to the saturation labeling of isolated eRF1. FIG. 2E illustrates inhibition of AzAt photoincorporation by the addition of either ataluren or GJ072. FIG. 2F is a graph showing Photoaffinity labeling of eRF3 alone or within release factor ternary complex. […] FIG. 2G and FIG. 2H are graphs showing the RNA-seq reads coverage as the effective reads per nucleotide. PRE: treated with 300 μM prephotolysed AzAt; PAL: treated with 300 μM AzAt. 26S-rRNA nucleotides 1-45 were unable to be mapped due to the lack of sequence information. […]

[4] = system: Stop-POST5 complex; assay: [3H]-AzAt photoaffinity labeling of Stop-POST5 complex; assay type: binding, shrimp (Artemia salina)
Protocol: (§1) Photoaffinity labeling with [^3H]-AzAt. Samples in Buffer 4, typically 20 μL, were incubated in the dark (20 min for Stop-POST5 and 80S-IRES complexes, 2 min for release factors) with various concentrations of [^3H]-AzAt at 37° C., transferred to a UV-transparent cuvette which was covered with parafilm to prevent evaporation, and irradiated in a Rayonet photochemical reactor equipped with 300 nm UV lamps for 5 min at room temperature. This was followed by quenching with 2 mM DTT at 37° C. for 5 min under ambient light. The irradiation time gave complete photolysis of the phenyl azide moiety in AzAt. Photolysis was also complete at 5 min in the presence of 1 mM ataluren, ruling out internal filtering effects.
Stop-POST5 and 80S-IRES complexes. 1 μM solutions of either Stop-POST5 or 80S-S.IRES, determined by A260, were photolabeled by [^3H]-AzAt. The sample was then either directly purified by ultracentrifugation through a sucrose cushion to determine the photoincorporation stoichiometry in the complex, or subjected to phenol/chloroform extraction to determine the photoincorporation stoichiometry in the total RNA. To determine the photoincorporation background arising from incomplete removal of noncovalently bound photolyzed AzAt, AzAt was prephotolysed for 5 min before adding to the complex, followed by the 20 min incubation in dark at 37° C. and subsequent sucrose cushion purification or RNA extraction as described above.

[5] = biological target: T1, eRF3 (Saccharomyces cerevisiae, UniProt P05453); assay: [3H]-AzAt photoaffinity labeling of eRF3; assay type: binding; conditions: near linear response to AzAt concentration
T1 construct: amino acid residues (166-685) of the eRF3 open reading frame; made in house; host or cells: E. coli BL21(DE3) CodonPlus
Protocol: as §1
Photoaffinity labeling of release factors. Solutions containing eRF1 (10 μM), eRF3 (20 μM) and 1 mM GMPPMP were pre-incubated at 37° C. for 2 min to form the ternary complex prior to photolabeling with [^3H]-AzAt. After quenching, reaction mixtures were loaded onto a 4-15% mini protean SDS-PAGE gel for protein separation and isolation. Gel slices containing eRF1 or eRF3, as shown by Coomassie Blue R250 staining, were crushed and the radioactivity was extracted in extraction buffer (50 mM Tris-HCl, 150 mM NaCl, and 0.1 mM EDTA; pH 7.5) by vigorously shaking at 70° C. for 30 min. The data fitting was performed using the software Prism. […]

T1 sequence (P05453 166-685): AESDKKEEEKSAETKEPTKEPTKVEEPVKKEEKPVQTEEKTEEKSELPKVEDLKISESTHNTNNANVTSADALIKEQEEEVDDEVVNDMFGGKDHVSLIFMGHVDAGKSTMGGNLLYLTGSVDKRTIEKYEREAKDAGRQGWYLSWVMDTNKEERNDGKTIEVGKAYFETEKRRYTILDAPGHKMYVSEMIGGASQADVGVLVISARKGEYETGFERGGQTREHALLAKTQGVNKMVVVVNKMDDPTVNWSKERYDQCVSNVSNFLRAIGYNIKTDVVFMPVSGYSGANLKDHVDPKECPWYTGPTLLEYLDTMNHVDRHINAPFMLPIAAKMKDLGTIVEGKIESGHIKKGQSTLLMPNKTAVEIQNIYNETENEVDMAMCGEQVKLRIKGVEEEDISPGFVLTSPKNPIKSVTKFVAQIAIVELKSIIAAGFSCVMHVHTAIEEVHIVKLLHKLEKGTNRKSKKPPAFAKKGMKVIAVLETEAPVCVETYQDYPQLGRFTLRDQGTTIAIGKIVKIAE

SMILES	effect on peptide release (fluorescence anisotropy change) [1]	effect on rate of Cy5-hRF1.hRF3.GTP binding to Stop-POST5 [2]	EC50 [3] [µM]	saturation labeling of Stop-POST5 [4]	share of photoincorporation found in RNA components of Stop-POST5 [4]	KA, AzAt photoincorporation into Stop-POST5 ([4]; fit to eq (1), FIG. 2B) [µM]	share of RNA photoincorporation found within 18S and 26S rRNA ([4]; urea-PAGE analysis) [%]	nature of photo-incorporation into eRF3 [5]
O=C(O)c1cccc(-c2noc(-c3ccccc3F)n2)c1 [Ataluren]	inhibited peptide release	strongly inhibited						
[N-]=[N+]=Nc1ccc(-c2nc(-c3cccc(C(=O)O)c3)no2)cc1 [AzAt]			50 ± 10	1.2 /Stop-POST5	More than 80%	120 ± 60	> 90	nonspecific binding
